From publication PMC3581469, “Bombesin Analogue-Mediated Delivery Preferentially Enhances the Cytotoxicity of a Mitochondria-Disrupting Peptide in Tumor Cells” (PLoS ONE, 2013)
Where no end group is shown, it is not given here.

Tests used:
[1] = test system: DU145 tumor xenografts; experiment: DU145 tumor xenograft model in BALB/c nude mice; format: in vivo, mouse
Protocol: (§1) All of the protocols used for in vivo experiments were approved by the University Animal Care and Use Committee. Four to six-week-old male BALB/c nu/nu mice were purchased from the University Animal Production Center. Seven million DU145 cells suspended in 200 µl PBS were subcutaneously injected into the left flank region of mice. On day 7–9 post inoculation, the mice were randomized into three groups (n = 5) and intraperitoneally (i.p.) received 15 mg/kg B28Bn(6–14), B28 or an equivalent volume of PBS once daily for 7 consecutive days. Alternatively, the mice intratumorally received 5 mg/kg drug once daily for 5 consecutive days. The tumor volume was calculated as length×width^2×0.5. At the end of i.p. therapy, the animals were sacrificed and the major organs were excised, paraffin-embedded, sectioned, and stained with hematoxylin/eosin (H&E) for the examination of histopathologic architecture. To evaluate the cytotoxicity on tumor cells in vivo, a single dose of 50 µg of peptide in 50 µl of PBS was injected into the tumor graft (200–300 mm^3), according to the method described previously. At 24 h post-injection, the animals were sacrificed, and the tumor tissues were routinely stained with H&E.

[2] = test system: DU145 cells; experiment: LDH release (Cytotox 96 non-radioactive cytotoxicity assay), necrosis; format: cell-based, human; conditions: 5 µM, 1 h
Protocol: Necrosis was evaluated with the Cytotox 96 non-radioactive cytotoxicity assay kit by detecting the release of lactate dehydrogenase (LDH) from necrotic cells. Ten-thousand cells were plated in a 96-well plate and treated with the peptide in 100 µl of RMPI 1640 supplemented with 2% FBS for 10 min-2 h, followed by LDH detection with 50 µl of culture supernatant from the treated cells, according to the manufacturer’s instruction. The LDH level was presented as the percentage relative to that of cells treated with 0.9% Triton X-100.

[3] = test system: normal cells (HSF, PrSC, SMC, MRC-5); format: cell-based, human; conditions: 1 h
Protocol: (§2) Cells were seeded at a density of 1×10^4 per well in a 96-well plate, were grown overnight and were co-incubated at 37°C for 1 h with increasing concentrations of the peptide in 100 µl RPMI 1640 supplemented with 2% FBS. Subsequently, the peptide solution was replaced by 100 µl fresh medium. To determine cell viability, 10 µl CCK-8 was added to the well, and the cultures were incubated for an additional 2–4 h. The absorbance was then measured at 450 nm (with a reference wavelength at 620 nm), and cell viability was calculated as the percentage of the value relative to the absorbance of the cells incubated without peptide. The IC50 values of the peptides were calculated from the respective cell viability curves. Simultaneously, the LIVE/DEAD BacLight bacterial viability kit was used to visualize the cytotoxicity of the peptides. Combined incubation with SYTO 9 (15 µM) and propidium iodide (PI, 2.5 µg/ml) stained the living cells fluorescent green and the dead cells fluorescent red due to their distinct cell membrane permeability.

[4] = test system: tumor cells (PC-3, DU145, MCF-7, MDA-MB-435S); format: cell-based, human
Protocol: as §2

[5] = test system: DU145 tumor cells; experiment: Live/Dead staining with SYTO 9 and PI; format: cell-based, human; conditions: 5 µM, 45 min, SYTO 9/PI
Protocol: as §2

[6] = test system: DU145 cells; experiment: FITC-Annexin V/PI staining, FACS analysis of apoptosis and necrosis; format: cell-based, human
Protocol: Phosphatidylserine exposed on the outer membrane reflects the early stages of apoptosis and can be detected by FITC-Annexin V and PI staining. The cells were detached and washed with medium. One-hundred and fifty thousand cells were suspended in 300 µl of RMPI 1640 supplemented with 10% FBS and treated with the peptide at the indicated concentration and time points. Then, the cells were subjected to dual staining with FITC-Annexin V and PI, according to the manual. The cells were observed under a fluorescence microscope and subjected to FACS analysis. Cells showing Annexin V−/PI-, Annexin V+/PI-, and Annexin V+/PI+ signals are considered to be living, early stage apoptotic, and either late stage apoptotic or necrotic, respectively. To assess DNA damage during apoptosis, the TUNEL assay was performed in accordance with the manufacturer’s instruction. Briefly, after treatment for 30 min-1 h with the peptide, cells were washed twice with PBS, fixed with 4% paraformaldehyde for 10–15 min at room temperature, permeabilized with 0.1% Triton X-100 for 2 min on ice, incubated in the reaction mixture and observed under a fluorescence microscope. FITC labeled nucleotides incorporated into the nuclei reflects DNA degradation. For investigating the activation of caspases, cells were preincubated with the Pan-caspase inhibitor, Z-VAD-FMK (100 µM), for 2 h before peptide treatment in the cytotoxicity assay. Immunofluorescence staining of caspase-3 was performed by using the Alexa Fluor 488-conjugated antibody against human cleaved caspase-3. The activation of caspase-3 was further verified by using a caspase-3 colorimetric assay kit (Genescript, Nanjing, China) with TNF-related apoptosis-inducing ligand (TRAIL) as a positive control. The activity of caspase-3 was presented as fold of peptide-treated cells vs untreated cells.

[7] = test system: liver and kidney; conditions: mouse, in vivo, ip, 15 mg/kg
Protocol: as §1

[8] = test system: DU145 and PC-3 cells; experiment: Cytotoxicity assay (CCK-8 cell viability); format: cell-based, human; conditions: 1 h; for cytotoxicity (in words): increasing concentrations, CCK-8
Protocol: as §2

## GGLRSLGRKILRAWKKYGNQWAVGHLM-NH2 [B28Bn(6–14)]
[1]; intraperitoneal 15 mg/kg once daily for 7 days, day 30, n = 5, mean±SD, PBS 421±87
  mean tumor volume: 179±42 mm^3
[1]; intratumoral 5 mg/kg once daily for 5 days, day 45, n = 5, mean±SD, PBS 1344±286
  mean tumor volume: 225±124 mm^3
[2]
  necrotic cells detected by LDH assay (percentage of max release with 0.9% Triton X-100): less than 10%
[3]
  IC50: 10.8 to 16.8 µM
[4]; 10 µM, 1 h, CCK-8
  loss of cell viability: over 90%
[4]; 1 h
  IC50: 1.7 to 3.5 µM
[4]; IC50 ratio versus unconjugated B28
  IC50 in tumor cells, times lower than B28: approximately 10 times
[5]
  dead cells (red fluorescence): over 90%
[6]; 2.5 µM, 10 min, 0 µM 0.24
  Annexin V+/PI+ cells (necrotic): 1.94%
[6]; 2.5 µM, 10 min, 0 µM 3.80
  early apoptotic cells (Annexin V+/PI-): 18.05%
[6]; 5 µM, 1 min
  Annexin V+/PI+ cells (necrotic): 8.84%
[6]; 5 µM, 1 min, 0 min 3.63
  early apoptotic cells (Annexin V+/PI-): 36.99%
[6]; 5 µM, 5 min
  Annexin V+/PI+ cells (necrotic): 16.25%
  early apoptotic cells (Annexin V+/PI-): 32.94%
[6]; 5 µM, 10 min
  Annexin V+/PI+ cells (necrotic): 15.30%
  early apoptotic cells (Annexin V+/PI-): 39.19%
[6]; 5 µM, 15 min
  Annexin V+/PI+ cells (necrotic): 36.88%
  early apoptotic cells (Annexin V+/PI-): 35.36%
[6]; 10 µM, 10 min
  Annexin V+/PI+ cells (necrotic): 29.93%
  early apoptotic cells (Annexin V+/PI-): 43.18%
[7]
  histological damage in liver and kidneys: no obvious histological damage

## CSCC[C@H](NC(=O)[C@H](CC(C)C)NC(=O)[C@H](Cc1c[nH]cn1)NC(=O)CNC(=O)[C@@H](NC(=O)[C@H](C)NC(=O)[C@H](Cc1c[nH]c2ccccc12)NC(=O)[C@H](CCC(N)=O)NC(=O)[C@@H](N)CC(N)=O)C(C)C)C(N)=O [Bn(6–14), reference compound]
[8]
  cytotoxicity (in words): no obvious cytotoxicity

## GGLRSLGRKILRAWKKYGQRLGNQ-NH2 [B28Bn(2–7)]
[8]; 10 µM peptide, CCK-8, RPMI 1640 with 2% FBS
  cytotoxicity / loss of cell viability: less than 40%
[8]
  cytotoxicity (in words): moderate cytotoxicity
